Assay results as given in US20230174538A1, “Tricyclic heterocycles” (Merck Patent GmbH, priority 2020, published 2023).

Tests used:
[1] = system: SW620 Yap KO cells; experiment: Viability assay in SW620 Yap KO (Yap independent) cells, CyQUANT; format: cell-based; conditions: Homo sapiens, SW-620
Description: (§1) Viability Assay in NCI-H226 (Yap-Dependent) and SW620 Yap KO (Yap Independent) Cells
(§2) The ability of YAP-TEAD inhibitors to inhibit tumor cell growth was evaluated using two different cell lines: NCI-H226, which is a YAP dependent cell line, and SW620 cells, where YAP and TAZ were knocked out using CRISPR to generate a YAP independent cell line.
(§3) For the assay, cells were treated in duplicates with the test compounds in a 10-point dose, 1:3 dilution steps, with the top concentration starting at 30 μM (final concentration in assay). After a 96 hour incubation at 37° C., 95% rH, and 5% CO2, a cell-permeant DNA-binding dye that stains only healthy cells (CyQUANT®, Promega) was added to the cells, allowing the quantification of cell viability.
(§4) Cell Media: The NCI-H226 cells were cultured in the following media: RPMI 1640, +10% FBS, +1× GlutaMAX, +10 mM HEPES, +0.5% Pen/Strep. The SW620-KO cells were cultured in the following media: DMEM/F-12, +10% FBS, +1× GlutaMAX, +10 mM HEPES, +0.5% Pen/Strep.
(§5) Reagents: The reagents used are listed below:
(§6) Cell culture: The cells were examined using an inverted microscope to check for health, cell density, etc. To dissociate adherent cells, the monolayer of cells was washed once with pre-warmed PBS. After removing the PBS, 3 ml pre-warmed Accutase was added to a F75 flask, dispersed evenly and the flask was allowed to sit in incubator for ˜4-5 minutes.
(§7) When a single cell suspension was obtained, 7 ml of prewarmed growth media was added and resuspended with the cells. The cell suspension was transferred to a sterile 15 ml conical centrifuge tube, and spun for 5 min at 300×g, RT. The supernatant was discarded and the pellet was resuspended in 10 ml of pre-warmed growth media.
(§8) The total cell count was determined, and 20 μl of the desired cell number was added to each well of a 384 well plate using a Multidrop Combi. The plates were then incubated for 24 hours at 37° C., 95% rH, and 5% CO2.
(§9) Compound treatment: 24 hours after seeding, the cells were treated with compounds.
(§10) A 1:333 dilution of compounds, diluted in DMSO, was made to get a final concentration of 0.3% DMSO per well. To transfer the compounds to the assay plate, 120 nl was shot from Labcyte low dead volume plates to the cell plates containing 20 μl media/well with the ECHO 555 liquid handling system.
(§11) After treatment, the cells were fed with 20 μl fresh pre-warmed assay media using a Multidrop combi.
(§12) The assay plates were then incubated for 96 h at 37° C., 95% rH, and 5% CO2.
(§13) 96 h after treatment 30 μl of CyQuant® reagent was added to the assay plates using a Multidrop combi in the dark. The plates were then incubated for 1 hour at 37° C., 95% rH and 5% CO2. Thereafter, the assay plates were removed from the incubator and allowed to equilibrate to RT for 30 min in the dark without lid. Finally, they were measured using an EnVision microplate reader with a FITC bottom read program.

[2] = system: NCI-H226 cells; experiment: Viability assay in NCI-H226 (Yap-dependent) cells, CyQUANT; format: cell-based; conditions: Homo sapiens
Description: as §1, §2, §3, §4, §5, §6, §7, §8, §9, §10, §11, §12, §13

[3] = system: YAP-TEAD interaction; experiment: SK-HEP-1 reporter assay (8xTEAD responsive elements driving NanoLuc luciferase); format: cell-based; conditions: Homo sapiens, SK-HEP1, SK-HEP-1 reporter assay
Outline: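 Luminescence after NanoGlo addition gave reporter activity, and IC50 values came from duplicate 10-point curves (top final concentration 30 μM, 0.3% DMSO). The cells were SK-HEP-1 with a stably integrated 8×TEAD-driven NanoLuc gene, exposed to compound for 24 h at 37 °C.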

Row | SMILES | IC50 [1] [µM] | melting point [°C] | IC50 [2] [nM] | IC50 [3] [nM]
1 | Cn1cc2c3cc(C(=O)O[C@@H]4O[C@H](C(=O)O)[C@@H](O)[C@H](O)[C@H]4O)ccc3n(-c3ccc(C(F)(F)F)cc3)c2n1 [Example 30, (2S,3S,4S,5R,6S)-3,4,5-trihydroxy-6-{2-methyl-8-[4-(trifluoromethyl)phenyl]-2H,8H-pyrazolo[3,4-b]indole-5-carbonyloxy}oxane-2-carboxylic acid] | > 30 | 110 to 111 | 1000 to 10000 | 100 to 10000
2 | Cn1cc2c3cc(C(=O)NC4CC4)ccc3n(-c3ccc(C(F)(F)F)nc3)c2n1 [Example 27, N-cyclopropyl-2-methyl-8-[6-(trifluoromethyl)pyridin-3-yl]-2H,8H-pyrazolo[3,4-b]indole-5-carboxamide] | > 30 | 300 | 1 to 100 | 1 to 10
3 | Cn1cc2c(n1)c1cc(F)ccc1n2-c1ccc(C(F)(F)F)cc1 [Example 26, 7-fluoro-2-methyl-4-[4-(trifluoromethyl)phenyl]pyrazolo[4,3-b]indole] | 10 to 30 | – | > 10000 | 10 to 100
4 | Cn1cc2c(n1)c1cc([S+](C)[O-])ccc1n2-c1ccc(C(F)(F)F)cc1 (stereo not drawn) [Example 32, 7-methanesulfinyl-2-methyl-4-[4-(trifluoromethyl)phenyl]-2H,4H-pyrazolo[4,3-b]indole] | – | – | > 10000 | 100 to 10000
5 | CCCn1ncc(CNC(=O)c2ccc3c(c2)c2cn(C)nc2n3-c2ccc(C(F)(F)F)cc2)c1C [B123^] | – | – | 100 to 1000 | 10 to 100
6 | Cn1cc2c3cc(C(=O)O)ccc3n(-c3ccc(C4CCCC4)cc3)c2n1 [Example 22, 8-(4-cyclopentylphenyl)-2-methyl-2H,8H-pyrazolo [3,4-b]indole-5-carboxylic acid] | > 30 | – | 100 to 1000 | 10 to 100
7 | CCOc1ccc(-n2c3ccc(C(=O)O)cc3c3cn(C)nc32)cc1 [Example 15, 8-(4-Ethoxyphenyl)-2-methyl-2H,8H-pyrazolo[3,4-b]indole-5-carboxylic acid] | > 30 | 179 to 181 | 100 to 1000 | 10 to 100
8 | COc1nc(C)cc(CNC(=O)c2ccc3c(c2)c2cn(C)nc2n3-c2ccc(C(F)(F)F)cc2)n1 [B126^] | > 30 | – | 1 to 100 | 10 to 100
9 | Cn1cc2c3cc(C(=O)O)ccc3n(Cc3ccccc3)c2n1 [Example 12, 8-(Benzyl)-2-methyl-2H,8H-pyrazolo[3,4-b]indole-5-carboxylic acid] | > 30 | – | 100 to 1000 | 10 to 100
10 | Cn1cc2c(n1)c1cc(S(C)(=N)=O)ccc1n2-c1ccc(C(F)(F)F)cc1 (stereo not drawn) [Example 35, Imino(methyl){2-methyl-4-[4-(trifluoromethyl)phenyl]-2H,4H-pyrazolo[4,3-b]indol-7-yl}-lambda6-sulfanone] | > 30 | – | 100 to 1000 | 1 to 10
11 | Cn1cc2c3cc(C(=O)O)ccc3n(-c3cccc(C(F)(F)F)c3)c2n1 [Example 6, 2-Methyl-8-[3-(trifluoromethyl)phenyl]-2H,8H-pyrazolo[3,4-b]indole-5-carboxylic acid] | > 30 | – | 100 to 1000 | 10 to 100
12 | C=CC(=O)Nc1ccc2c(c1)c1cn(C)nc1n2-c1ccc(C(F)(F)F)cc1 [Example 20, N-[2-methyl-8-[4-(trifluoromethyl)phenyl]pyrazolo[3,4-b]indol-5-yl]prop-2-enamide] | 10 to 30 | 223 to 224 | 100 to 1000 | 1 to 10
13 | CNC(=O)c1ccc2c(c1)c1nn(C)cc1n2-c1ccc(C(F)(F)F)cc1 [Example 17, N,2-dimethyl-4-[4-(trifluoromethyl)phenyl]pyrazolo [4,3-b]indole-7-carboxamide] | > 30 | – | 100 to 1000 | 10 to 100
14 | CN(C)S(=N)(=O)c1ccc2c(c1)c1nn(C)cc1n2-c1ccc(C(F)(F)F)cc1 (stereo not drawn) [Example 36, N,N,2-Trimethyl-4-[4-(trifluoromethyl)phenyl]-2H,4H-pyrazolo[4,3-b]indole-7-sulfonoimidamide] | > 30 | – | 1 to 100 | 1 to 10
15 | CSc1ccc2c(c1)c1cn(C)nc1n2-c1ccc(C)cc1 [Example 31, 2-methyl-8-(4-methylphenyl)-5-(methylsulfanyl)-2H,8H-pyrazolo[3,4-b]indole] | > 30 | – | > 10000 | 10 to 100
16 | CCn1cc(C(O)CNC(=O)c2ccc3c(c2)c2cn(C)nc2n3-c2ccc(C(F)(F)F)cc2)cn1 (stereo not drawn) [Example B36, N-[2-(1-ethyl-1H-pyrazol-4-yl)-2-hydroxyethyl]-2-methyl-8-[4-(trifluoromethyl)phenyl]-2H,8H-pyrazolo[3,4-b]indole-5-carboxamide] | > 30 | – | 1 to 100 | 10 to 100
17 | Cn1cc2c3cc(C(=O)NCc4n[nH]cc4C4CC4)ccc3n(-c3ccc(C(F)(F)F)cc3)c2n1 [Example B22, N-[(4-cyclopropyl-1H-pyrazol-3-yl)methyl]-2-methyl-8-[4-(trifluoromethyl)phenyl]-2H,8H-pyrazolo[3,4-b]indole-5-carboxamide] | > 30 | – | 1 to 100 | 10 to 100
18 | Cn1cc2c(n1)c1cc(S(N)(=O)=O)ccc1n2-c1ccc(C(F)(F)F)cc1 [Example 34, 2-methyl-4-[4-(trifluoromethyl)phenyl]-2H,4H-pyrazolo[4,3-b]indole-7-sulfonamide] | > 30 | – | > 10000 | 10 to 100
19 | Cc1ccc(-n2c3ccc(C(=O)O)cc3c3cn(C)nc32)cc1 [Example 9, 2-Methyl-8-(4-methylphenyl)-2H,8H-pyrazolo[3,4-b]indole-5-carboxylic acid] | 10 to 30 | – | 1 to 100 | –
20 | COc1ccc(-n2c3ccc(C(=O)O)cc3c3cn(C)nc32)cc1 [Example 14, 8-(4-methoxyphenyl)-2-methyl-2H,8H-pyrazolo[3,4-b]indole-5-carboxylic acid] | > 30 | – | 100 to 1000 | 10 to 100
21 | COCC(NC(=O)c1ccc2c(c1)c1cn(C)nc1n2-c1ccc(C(F)(F)F)cc1)c1cnn(C)c1 (stereo not drawn) [Example B68, N-[2-methoxy-1-(1-methyl-1H-pyrazol-4-yl)ethyl]-2-methyl-8-[4-(trifluoromethyl)phenyl]-2H,8H-pyrazolo[3,4-b]indole-5-carboxamide] | > 30 | – | 100 to 1000 | 10 to 100
22 | Cn1cc2c3cc(C(=O)O)ccc3n(-c3ccc(OC(F)(F)F)cc3)c2n1 [Example 18, 2-methyl-8-[4-(trifluoromethoxy)phenyl]-2H,8H-pyrazolo[3,4-b]indole-5-carboxylic acid] | > 30 | – | 100 to 1000 | 1 to 10
23 | Cn1cc2c3cc(C(=O)O)ccc3n(Cc3ccc(C(F)(F)F)cc3)c2n1 [Example 5, 2-Methyl-8-{[4-(trifluoromethyl)phenyl]methyl}-2H,8H-pyrazolo[3,4-b]indole-5-carboxylic acid] | > 30 | – | 1 to 100 | 10 to 100
24 | Cn1cc2c3cc(C(=O)O)ccc3n(-c3ccc(F)cc3)c2n1 [Example 10, 8-(4-fluorophenyl)-2-methyl-2H,8H-pyrazolo[3,4-b]indole-5-carboxylic acid] | > 30 | – | 100 to 1000 | 10 to 100
25 | Cn1cc2c3cc(C(=O)NCc4ccncc4)ccc3n(-c3ccc(C(F)(F)F)cc3)c2n1 [Example 28, 2-methyl-N—[(pyridin-4-yl)methyl]-8-[4-(trifluoromethyl)phenyl]-2H, 8H-pyrazolo[3,4-b]indole-5-carboxamide] | – | 181 to 185 | – | > 10000
